The values below come from publication PMC9785606, “Design and Synthesis of Novel Phenylahistin Derivatives Based on Co-Crystal Structures as Potent Microtubule Inhibitors for Anti-Cancer Therapy” (Marine Drugs, 2022).

Series [1] has as its system human lung cancer NCI-H460 cell line. Put plainly: MTT cytotoxicity assay, lung cancer NCI-H460 cell line. The format is cell-based. Particulars: Homo sapiens, NCI-H460, 72 h, mean ± SD. The procedure: (§1) Human cancer cell lines (lung cancer NCI-H460 cell line, pancreatic cancer BxPC-3 cell line, colon cancer HT-29 cell line) were purchased from American Type Cell Culture Collection (ATCC, Manassas, VA, USA). Cells were maintained in RPMI-1640 medium supplemented with 10% (v/v) heat-inactivated fetal bovine serum, penicillin-streptomycin (100 U/mL-100 […]) at 37 °C in a humidified atmosphere (5% CO2–95% air). All tested derivatives were dissolved in 100% cell culture grade DMSO. Cells (3 × 10^3 per well) were seeded in 96-well plates for 24 h. Then, cells were treated with the tested compounds in six concentrations for 72 h. Cell viability was assessed by MTT assay. The absorbance at 490 nm was measured with a Microplate Reader (Molecular Devices, Silicon Valley, CA, USA). The data were analyzed by Origin 8.5 (OriginLab, Northampton, MA, USA).
For orientation: Tetrazolium dyes change colour on reduction, which living cells bring about.

In series [2] the test system is pancreatic cancer BxPC-3 cell line. Briefly: MTT cytotoxicity assay, pancreatic cancer BxPC-3 cell line. It is filed as cell-based. The note with it: Homo sapiens, 72 h, mean ± SD. The method, then:
as §1

The test system of series [3] is colon cancer HT-29 cell line. Put plainly: MTT cytotoxicity assay, colon cancer HT-29 cell line. It is filed as cell-based. Particulars: Homo sapiens, 72 h, mean ± SD. The method, then: as §1
The subject of a further series is caspase-3. Briefly: Western blotting of caspase-3 expression. It is filed as cell-based. The procedure:
Western blot was performed as previously described with antibody caspase-3 (1:1000) (WB0177/WB0176) or GAPDH (1:3000) (WB0197/WB0196, Shanghai Wei-Ao Biotechnology Co., Shanghai, China). Densities of the Western blotting bands were quantified using ImageJ 19.0. (NIH, Bethesda, MD, USA).
A general note: Immunoblotting shows a protein as a band on a membrane.

On to `CCCCn1cnc(/C=c2\[nH]c(=O)/c(=C/c3cccc(Oc4ccc(F)cc4)c3)[nH]c2=O)c1C(C)C` [15j], for which the melting point (usually the temperature, or range, at which the solid turns liquid) lay within 203 to 204 °C. Further, in series [1], the midpoint of inhibition, the IC50, lay at 2.49 ± 0.28 nM. In addition, the IC50 (as a rule, the concentration that inhibits the measured activity by half) in series [2] was found to be 1.13 ± 0.35 nM. The midpoint of inhibition in series [3], the IC50, lay at 2.11 ± 0.09 nM. In the series on caspase-3, the “Expression of caspase-3 vs control group and plinabulin group” value is reported as “significantly higher”.
